# From ChEMBL document CHEMBL5726860, “Phthalazinones and isoquinolinones as rock inhibitors” (2018)
# Molecular target: Rho-associated protein kinase 1 (Homo sapiens, UniProt Q13464)
# Test: (§1) In Vitro Assay: The effectiveness of compounds of the present invention as ROCK inhibitors can be determined in a 30 μL assay containing 20 mM HEPES, pH 7.5, 20 mM MgCl2, 0.015% Brij-35, 4 mM DTT, 5 μM ATP and 1.5 μM peptide substrate (FITC-AHA-[…]-OH). Compounds were dissolved in DMSO so that the final concentration of DMSO was <2%, and the reaction was initiated with Rho kinase variants. After incubation, the reaction was terminated by the addition of EDTA and the phosphorylated and non-phosphorylated peptides separated using a LABCHIP® 3000 Reader (Caliper Life Sciences). […] Compounds were tested in dose-response format, and the inhibition of kinase activity was calculated at each concentration of compound. The inhibition data were fit using a curve-fitting program to determine the IC50; i.e., the concentration of compound required to inhibit 50% of kinase activity.
# Chain of Rho-associated protein kinase 1 (Q13464 2-1354 limits assumed, change not shown): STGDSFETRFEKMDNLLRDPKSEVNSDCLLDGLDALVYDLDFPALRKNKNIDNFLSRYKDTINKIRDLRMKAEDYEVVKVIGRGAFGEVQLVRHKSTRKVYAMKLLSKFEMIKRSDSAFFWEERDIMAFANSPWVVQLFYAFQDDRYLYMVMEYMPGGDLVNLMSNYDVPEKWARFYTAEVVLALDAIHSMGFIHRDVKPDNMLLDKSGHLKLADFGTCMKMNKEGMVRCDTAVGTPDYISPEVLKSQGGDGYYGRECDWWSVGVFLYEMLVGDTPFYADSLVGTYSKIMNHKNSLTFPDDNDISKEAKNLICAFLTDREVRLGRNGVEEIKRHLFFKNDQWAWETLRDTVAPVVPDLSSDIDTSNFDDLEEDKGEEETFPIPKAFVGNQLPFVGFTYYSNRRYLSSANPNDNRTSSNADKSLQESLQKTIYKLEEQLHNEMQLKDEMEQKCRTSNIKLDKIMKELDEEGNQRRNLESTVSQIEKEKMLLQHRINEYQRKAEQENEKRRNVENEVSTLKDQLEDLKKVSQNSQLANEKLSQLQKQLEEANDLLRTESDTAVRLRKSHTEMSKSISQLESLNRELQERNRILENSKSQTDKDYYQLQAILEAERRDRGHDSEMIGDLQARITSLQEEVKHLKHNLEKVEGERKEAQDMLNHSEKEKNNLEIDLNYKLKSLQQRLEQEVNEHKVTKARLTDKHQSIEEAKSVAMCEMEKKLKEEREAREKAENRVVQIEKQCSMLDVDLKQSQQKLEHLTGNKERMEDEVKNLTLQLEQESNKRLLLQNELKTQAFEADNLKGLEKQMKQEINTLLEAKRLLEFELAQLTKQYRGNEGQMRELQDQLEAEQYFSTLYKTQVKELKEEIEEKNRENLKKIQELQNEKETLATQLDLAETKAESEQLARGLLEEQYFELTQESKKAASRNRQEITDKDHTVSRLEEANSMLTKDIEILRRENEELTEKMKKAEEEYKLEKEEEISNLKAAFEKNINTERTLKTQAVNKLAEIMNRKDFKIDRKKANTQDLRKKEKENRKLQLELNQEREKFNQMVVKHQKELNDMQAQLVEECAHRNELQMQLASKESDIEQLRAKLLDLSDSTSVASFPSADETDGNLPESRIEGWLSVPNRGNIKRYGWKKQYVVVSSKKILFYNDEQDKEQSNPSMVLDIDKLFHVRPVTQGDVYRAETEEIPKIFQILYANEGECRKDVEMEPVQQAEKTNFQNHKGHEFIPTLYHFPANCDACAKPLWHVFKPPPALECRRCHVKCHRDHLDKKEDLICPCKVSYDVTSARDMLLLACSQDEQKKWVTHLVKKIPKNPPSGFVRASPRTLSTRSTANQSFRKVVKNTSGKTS
row,SMILES,IC50
1,O=C(Oc1ccc(-c2n[nH]c(=O)c3ccccc23)cc1)N1Cc2ccccc2C1,in the range around 550 nM

# Molecular target: Rho-associated protein kinase 2 (Homo sapiens, UniProt O75116)
# Sequence (O75116 whole entry, looked up, change not shown): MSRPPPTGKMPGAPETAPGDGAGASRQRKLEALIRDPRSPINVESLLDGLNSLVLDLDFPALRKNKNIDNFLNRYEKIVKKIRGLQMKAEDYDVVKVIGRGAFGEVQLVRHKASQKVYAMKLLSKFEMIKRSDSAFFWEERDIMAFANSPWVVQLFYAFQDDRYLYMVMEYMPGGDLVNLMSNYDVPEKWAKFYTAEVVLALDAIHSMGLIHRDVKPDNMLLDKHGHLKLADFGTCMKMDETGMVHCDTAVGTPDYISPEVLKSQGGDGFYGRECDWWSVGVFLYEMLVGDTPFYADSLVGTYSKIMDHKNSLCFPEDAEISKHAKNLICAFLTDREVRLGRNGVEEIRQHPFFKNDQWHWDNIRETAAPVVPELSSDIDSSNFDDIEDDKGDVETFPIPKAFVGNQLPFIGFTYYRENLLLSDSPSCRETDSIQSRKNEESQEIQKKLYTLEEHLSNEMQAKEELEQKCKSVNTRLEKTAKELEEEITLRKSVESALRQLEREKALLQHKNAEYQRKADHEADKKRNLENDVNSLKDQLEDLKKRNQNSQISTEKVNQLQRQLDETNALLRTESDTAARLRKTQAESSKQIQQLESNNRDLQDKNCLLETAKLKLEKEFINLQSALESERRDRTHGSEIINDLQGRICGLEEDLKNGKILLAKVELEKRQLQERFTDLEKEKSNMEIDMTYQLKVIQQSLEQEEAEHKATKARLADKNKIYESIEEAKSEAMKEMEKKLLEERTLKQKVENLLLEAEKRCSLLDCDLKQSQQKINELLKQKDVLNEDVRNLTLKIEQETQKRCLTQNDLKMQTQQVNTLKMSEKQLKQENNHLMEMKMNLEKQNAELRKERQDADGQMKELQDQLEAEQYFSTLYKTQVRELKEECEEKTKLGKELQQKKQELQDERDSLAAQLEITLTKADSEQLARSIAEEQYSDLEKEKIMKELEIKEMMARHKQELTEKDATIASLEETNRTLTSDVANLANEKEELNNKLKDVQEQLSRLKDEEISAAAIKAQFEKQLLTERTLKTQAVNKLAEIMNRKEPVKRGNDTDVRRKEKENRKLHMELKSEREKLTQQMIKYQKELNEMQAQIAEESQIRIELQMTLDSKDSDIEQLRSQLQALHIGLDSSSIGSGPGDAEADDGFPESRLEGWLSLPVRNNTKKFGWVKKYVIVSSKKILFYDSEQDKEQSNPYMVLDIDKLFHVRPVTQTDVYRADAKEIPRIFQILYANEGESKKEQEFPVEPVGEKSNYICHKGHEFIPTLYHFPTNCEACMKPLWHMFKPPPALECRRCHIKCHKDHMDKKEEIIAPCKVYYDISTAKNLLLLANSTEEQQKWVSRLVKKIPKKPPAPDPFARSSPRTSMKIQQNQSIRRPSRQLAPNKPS
# Test: as §1
row,SMILES,IC50 [nM]
1,CCCn1cc(C(=O)Nc2ccc(-c3n[nH]c(=O)c4ccccc34)cc2)cn1,< 100
2,O=C(Nc1ccc(-c2n[nH]c(=O)c3ccccc23)c(Cl)c1)c1nn(CC2CNC2)c2ccccc12,< 100
3,O=C(Cc1ccc(-c2c[nH]c(=O)c3ccccc23)c(F)c1)N1Cc2ccccc2C1,< 100
4,O=C(Nc1ccc(-c2n[nH]c(=O)c3ccccc23)cc1)c1nn(CC2CCNCC2)c2ccccc12,< 100
5,CC(O)Cn1cc(C(=O)Nc2ccc(-c3n[nH]c(=O)c4ccccc34)cc2)cn1 (stereo not drawn),< 100
6,O=C(Nc1ccc(-c2c[nH]c(=O)c3ccccc23)cc1)c1ccc(N2CCOCC2)cc1,< 100
7,O=C(Nc1ccc(-c2n[nH]c(=O)c3ccccc23)c(CO)c1)c1nn(CCC2CCOCC2)c2ccccc12,< 100
8,O=c1[nH]nc(-c2ccc(Nc3nnc(-c4ccccc4)s3)cc2)c2ccccc12,< 100
9,O=C(Nc1ccc(-c2n[nH]c(=O)c3ccccc23)cc1)c1cnn(C2CCCCC2)c1,< 100

# More lines, now with the values ahead:
row,IC50 [nM],SMILES
1,< 100,O=C(Nc1ccc(-c2n[nH]c(=O)c3ccccc23)cc1)c1cnn(C2CCS(=O)(=O)C2)c1 (stereo not drawn)
2,< 100,O=C(Nc1ccc(-c2n[nH]c(=O)c3ccccc23)cc1)c1cnn(CC(F)(F)F)c1
3,< 100,O=C(Nc1ccc(-c2n[nH]c(=O)c3ccccc23)cc1)c1cc2ncccn2n1
4,< 100,O=C(Nc1ccc(-c2n[nH]c(=O)c3ccccc23)cc1)c1cnn(CC(F)(F)C(F)F)c1
5,< 100,O=C(Nc1ccc(-c2n[nH]c(=O)c3ccccc23)cc1)c1cnn(C2CCCC2)c1
6,< 100,O=C(Nc1ccc(-c2n[nH]c(=O)c3ccccc23)cc1)c1cn2ccnc(Cl)c2n1
7,< 100,O=C(Nc1ccc(-c2n[nH]c(=O)c3ccccc23)cc1)c1c[nH]c2ncc(F)cc12
8,< 100,Cc1ccc2oc(Nc3ccc(-c4n[nH]c(=O)c5ccccc45)cc3)nc2c1
9,< 100,O=C(Nc1ccc(-c2n[nH]c(=O)c3ccccc23)cc1)c1cnn(CC(O)C(F)(F)F)c1 (stereo not drawn)
10,< 100,O=C(Nc1ccc(-c2n[nH]c(=O)c3ccccc23)cc1)c1cn[nH]c1
11,< 100,O=C(Nc1ccc(-c2n[nH]c(=O)c3ccccc23)cc1)c1cnn2ccc(OCCO)cc12
12,< 100,CCc1c(C(=O)Nc2ccc(-c3n[nH]c(=O)c4ccccc34)cc2)nnn1-c1cccc(Cl)c1
13,< 100,O=C(Nc1ccc(-c2n[nH]c(=O)c3ccccc23)cc1)c1cnn(CC2CC2)c1
